Values quoted from earlier work in publication PMC11859340, “The Therapeutic Potential of Spirooxindoles in Cancer: A Focus on p53–MDM2 Modulation” (Pharmaceuticals, 2025).
Like-named read-outs stand apart in the source and are kept apart here.

How the values were obtained:
[1] = tested on: HepG2 (hepatocellular wild p53 type); design: method as in PMID 24268795; conditions: read-out: GI50 against HepG2
[2] = tested on: SW620 (mutant p53); design: method as in PMID 24268795; conditions: read-out: GI50 against SW620
[3] = tested on: HCT116 (p53^+/+); design: method as in PMID 24268795; conditions: read-out: GI50 against HCT116 (p53^+/+)
[4] = tested on: HCT116 (p53^−/−); design: method as in PMID 24268795; conditions: read-out: GI50 against HCT116 (p53^−/−)
[5] = tested on: MCF7; design: method as in PMID 29210587; conditions: at 20 μM, MTT
[6] = tested on: BT-474 (mutated-type p53); design: method as in PMID 29210587; conditions: at 20 μM, MTT
[7] = tested on: MDM2; design: method as in PMID 29210587; conditions: at 20 μM, HTRF method
[8] = tested on: ZR-75-1 (wild-type p53); design: method as in PMID 29210587; conditions: at 20 μM, MTT
[9] = tested on: HEK-293; design: method as in PMID 25618595; conditions: human kidney normal cell line; read-out: IC50 against HEK-293
[10] = tested on: MCF7; design: method as in PMID 25618595; conditions: MTT; read-out: IC50 against MCF7
[11] = tested on: MD-MB-231; design: method as in PMID 25618595; conditions: MTT; read-out: IC50 against MD-MB-231
[12] = tested on: tumor growth; design: method as in PMID 25618595; conditions: 20 mg/kg body weight over 14 days
[13] = tested on: VERO; design: method as in PMID 25618595; conditions: monkey kidney normal cell line; read-out: IC50 against VERO
[14] = tested on: HCT116^−/−; design: method as in PMID 34946727; conditions: MTT; read-out: CC50 against HCT116^−/−
[15] = tested on: HCT116^+/+; design: method as in PMID 34946727; conditions: MTT; read-out: CC50 against HCT116^+/+
[16] = tested on: HCT116 p53^+/+; design: method as in PMID 28800455; conditions: read-out: IC50 against HCT116 p53^+/+
[17] = tested on: HCT116 p53^−/−; design: method as in PMID 28800455; conditions: read-out: IC50 against HCT116 p53^−/−
[18] = tested on: MCF7 “wild p53”; design: method as in PMID 37731691; conditions: MTT; read-out: IC50 against MCF7
[19] = tested on: MDA-MB-231 “mutant p53”; design: method as in PMID 37731691; conditions: MTT; read-out: IC50 against MDA-MB-231
[20] = tested on: MCF 10A; design: method as in PMID 37731691; conditions: MTT; read-out: IC50 against MCF 10A
[21] = tested on: HCT116 (p53^−/−); design: method as in doi:10.1039/C5MD00450K; conditions: read-out: GI50 against HCT116 (p53^−/−)
[22] = tested on: SW620 (colon, mutant p53); design: method as in doi:10.1039/C5MD00450K; conditions: read-out: GI50 against SW620
[23] = tested on: HepG2 (liver, wild p53 type); design: method as in doi:10.1039/C5MD00450K; conditions: read-out: GI50 against HepG2
[24] = tested on: HCT116 (p53^+/+); design: method as in doi:10.1039/C5MD00450K; conditions: read-out: GI50 against HCT116 (p53^+/+)
[25] = tested on: colon HCT116; design: method as in PMID 31047751; conditions: CCK-8
[26] = target: MDM2; design: method as in PMID 31047751; conditions: fluorescence polarization assay; read-out: Ki, MDM2 inhibitory effect
[27] = tested on: lung A549; design: method as in PMID 31047751; conditions: CCK-8
[28] = tested on: breast MCF7; design: method as in PMID 31047751; conditions: CCK-8
[29] = tested on: HepG2 (liver); design: method as in PMID 30802707; conditions: MTT; read-out: IC50 against HepG2
[30] = tested on: VERO-B (normal) cells; conditions: read-out: IC50 against VERO-B; MTT, normal cells
[31] = tested on: A549 (lung); design: method as in doi:10.1080/10426507.2020.1723590; conditions: MTT; read-out: IC50 against A549
[32] = tested on: PC-3 (prostate); design: method as in PMID 30802707; conditions: MTT; read-out: IC50 against PC-3
[33] = design: method as in PMID 30508794; conditions: MTT; read-out: IC50 against PC3
[34] = tested on: HCT116 (colon); design: method as in PMID 30508794; conditions: MTT; read-out: IC50 against HCT116
[35] = tested on: HepG2 (liver); design: method as in PMID 30508794; conditions: MTT; read-out: IC50 against HepG2
[36] = tested on: A549 “lung”; design: method as in PMID 28027532; conditions: MTT; read-out: IC50 against A549
[37] = tested on: HCT116 (colon); design: method as in PMID 30802707; conditions: MTT; read-out: IC50 against HCT116
[38] = tested on: HCT116 “colon”; design: method as in PMID 28027532; conditions: MTT; read-out: IC50 against HCT116
[39] = tested on: A2870T “ovarian”; design: method as in PMID 28027532; conditions: MTT; read-out: IC50 against A2870T
[40] = tested on: A2870s; design: method as in PMID 28027532; conditions: MTT; read-out: IC50 against A2870s
[41] = tested on: MCF7 “breast”; design: method as in PMID 28027532; conditions: MTT; read-out: IC50 against MCF7
[42] = tested on: HeLa (cervical); design: method as in PMID 37935912; conditions: SRB; read-out: IC50 against HeLa
[43] = tested on: CT26; design: method as in PMID 28027532; conditions: MTT; read-out: IC50 against CT26
[44] = tested on: HEK293T (embryonic kidney); design: method as in doi:10.1080/10426507.2020.1723590; conditions: MTT; read-out: IC50 against HEK293T
[45] = tested on: H1975 “lung”; design: method as in PMID 28027532; conditions: MTT; read-out: IC50 against H1975
[46] = tested on: MDM2; design: method as in PMID 37175323; conditions: induction of protein degradation
[47] = tested on: p53; design: method as in PMID 37175323; conditions: 22Rv1 and LNCaP, dose-dependent
[48] = tested on: transplanted cancer (lung cancer); design: method as in PMID 32738990; conditions: 100, 200, 400 mg/kg

Cc1ccc(C2=NO[C@@]3(C(=O)Nc4cc(Cl)ccc43)[C@@H]2c2ccccc2)cc1
GI50 [1]: 29.1 ± 1.09 µM
GI50 [2]: 31.6 ± 1.05 µM
GI50 [3]: 26.6 ± 1.07 µM
GI50 [4]: 30.6 ± 1.12 µM

C[C@H]1CN(C(=O)OC(C)(C)C)[C@@]2(C(=O)Nc3cc(Cl)ccc32)[C@@H]([N+](=O)[O-])[C@@H]1c1ccc(Cl)cc1
% inhibition, MCF7 [5]: 93.03%
% inhibition, BT-474 [6]: 50.00%
inhibitory activity against MDM2 [7]: 84.86
% inhibition, ZR-75-1 [8]: 82.28%

O=C(c1ccc(OCCN2CCCCC2)cc1)C1[C@H](c2ccccc2)[C@@H](c2ccccc2)NC12C(=O)Nc1ccc(Cl)cc12 (stereo partly drawn)
IC50 [9]: > 50 µM
IC50 [10]: 6.5 µM
IC50 [11]: 3.7 µM
tumor growth compared to the untreated control group [12]: reduction in tumor growth
IC50 [13]: > 50 µM

COc1ccc(N2C(=O)[C@@]3(CN(C)C[C@@]34C(=O)Nc3ccc(Cl)cc34)NC2=S)cc1 [84 (X = S, R = Cl, R’ = 4-MeOC6H4)]
CC50 [14]: 2.35 ± 0.95 µM
CC50 [15]: 1.95 ± 0.43 µM

O=C1Nc2ccc(Br)cc2[C@]12[C@@H](c1ccccc1)C(c1ccccc1)=NN2c1ccccc1 [97 (R = 5-Br, R^1 = R^3 = H, R^2 = Ph)]
IC50 [16]: 13.1 ± 1 µM
IC50 [17]: 14.2 ± 0.8 µM

O=C1C=CC(OCc2cn(CCN3C(=O)[C@]4(c5ccc(Br)cc53)[C@@H](c3ccccc3)C(c3ccccc3)=NN4c3ccccc3)nn2)(c2cc(=O)c3c(O)cc(O)cc3o2)C=C1 [105 (X = (CH2)2)]
IC50 [18]: 2.92 µM
IC50 [19]: 1.08 µM
IC50 [20]: 4.56 µM

O=C1Nc2ccc(Br)cc2[C@]12ON=C(c1cccc(Cl)c1)N2c1cccc(Cl)c1 [110 (R^1 = 5-Br, R^2 = 3-Cl, R^3 = 3-Cl)]
GI50 [21]: 2.9 ± 0.2 µM
GI50 [22]: 2.1 ± 0.3 µM
GI50 [23]: 2.1 µM
GI50 [24]: 2 µM

O=C(C1=CCC(c2ccc(Br)cc2)C2(S1)C(=O)Nc1ccccc12)c1ccccc1 (stereo not drawn) [150 (R^1 = H, R^2 = Ph, R^3 = 4-BrC6H4)]
IC50 ([25]; read-out: IC50 against HCT116): 1.7 µM
% inhibition, HCT116 ([25]; at 10 μM): 91.9%
Ki [26]: 43.8 µM
IC50 ([27]; read-out: IC50 against A549): 2.1 µM
% inhibition, A549 ([27]; at 10 μM): 75.1%
IC50 ([28]; read-out: IC50 against MCF7): 6.8 µM
% inhibition, MCF7 ([28]; at 10 μM): 69.4%

N.N.[Cl][Pt][Cl] [cisplatin, reference compound]
IC50 [29]: 5.5 ± 1 µM
IC50 [30]: 5 ± 0.2 µM
IC50 [31]: 44.1 ± 3.9 µM
IC50 [32]: 5 ± 0.5 µM
IC50 [33]: 5 ± 0.56 µM
IC50 [34]: 12.6 ± 0.5 µM
IC50 [35]: 5.5 ± 0.3 µM
IC50 [36]: 15.6 µM
IC50 [37]: 12.6 ± 2 µM
IC50 [38]: 17.4 µM
IC50 [39]: 27.3 µM
IC50 [40]: 20.9 µM
IC50 [41]: 7.8 µM
IC50 [42]: 2 ± 0.3 µM
IC50 [43]: 23.7 µM
IC50 [44]: 12.4 ± 3.9 µM
IC50 [45]: 9.7 µM

COc1cc(C(N)=O)ccc1NC(=O)[C@H]1[C@H](c2cccc(Cl)c2F)C2(C(=O)Nc3cc(Cl)ccc32)[C@H](CC(C)(C)C)N1C(=O)OCCOCCOCCOCCOC(=O)N1[C@@H](CC(C)(C)C)[C@@]2(C(=O)Nc3cc(Cl)ccc32)[C@@H](c2cccc(Cl)c2F)[C@@H]1C(=O)Nc1ccc(C(N)=O)cc1OC (stereo partly drawn) [compound 44]
MDM2 level [46]: Downregulation of MDM2
p53 levels [47]: increase in p53 levels

CN1C(=O)C2(C(C#N)=C(N)Oc3cc4oc(-c5ccccc5)cc(=O)c4c(O)c32)c2cc(Br)ccc21 (stereo not drawn) [compound 128]
transplanted cancer in mice [48]: Inhibition of transplanted cancer in mice
